This note sets out measurements from patent publication US20240116948A1, “PYRIDO OXAZINE DERIVATIVES AS ALK5 INHIBITORS” (CHIESI FARMACEUTICI S.P.A., priority 2020, published 2024).

For the assay, the target named is human ALK5 (Homo sapiens (Human), UniProt P36897). The assay is described as follows: ADP-GLO Kinases assay, inhibition of ALK5 kinase activity. Format: biochemical. Here is the method:
The enzymatic activity of compounds of the present invention was monitored measuring the formation of ADP using the ADP-GLO Kinases assay. Following the incubation of the purified enzyme, a substrate and ATP, the produced ADP was converted into ATP, which in turn was converted into light by Ultra-Glo Luciferase. The luminescent signal positively correlated with ADP amount and kinase activity. Briefly, the kinase reaction was performed by incubating 2.6 nM of the purified, commercially available human ALK5 (recombinant TGF 31 N-term GST-tagged, 80-end), a final concentration of TGFβ1 peptide 94.5 μM (Promega, T36-58) and ultra-pure ATP (Promega V915B). The ATP concentration was set at the Km value (concentration of substrate which permits the enzyme to achieve half maximal velocity (Vmax)) of ALK5 (5 μM). All reactions/incubations were performed at 25° C. Compound and ALK5 kinase were mixed and incubated for 15 mins. Reactions were initiated by addition of ATP at a final concentration in the assay of […]. After an incubation of 150 min, the reaction was stopped, and ADP production detected with ADP-Glo kit according to manufacturer's indications. The assay was performed in 384-well format and was validated using a selection of reference compounds that was tested in 11 point concentration-response curve.
Compounds of the examples C1 and C2 were tested in the same in vitro assay described above.
For orientation: ADP-Glo turns the ADP formed in a reaction into a luminescent signal.

Where [1] appears, read: Table 12, compounds classified in term of potency, ATP at Km, 25° C., read-out: ALK5 IC50.
Setting [2] is: Table 13, comparative examples, same in vitro assay, read-out: ALK5 IC50.
Where [3] appears, read: summary statements in running text, read-out: IC50 / potency on ALK5.

Read-outs that look alike come from different tables or passages of the source. Bounds are passed on as bounds.

human ALK5, sequence (P36897 80-503 limits assumed): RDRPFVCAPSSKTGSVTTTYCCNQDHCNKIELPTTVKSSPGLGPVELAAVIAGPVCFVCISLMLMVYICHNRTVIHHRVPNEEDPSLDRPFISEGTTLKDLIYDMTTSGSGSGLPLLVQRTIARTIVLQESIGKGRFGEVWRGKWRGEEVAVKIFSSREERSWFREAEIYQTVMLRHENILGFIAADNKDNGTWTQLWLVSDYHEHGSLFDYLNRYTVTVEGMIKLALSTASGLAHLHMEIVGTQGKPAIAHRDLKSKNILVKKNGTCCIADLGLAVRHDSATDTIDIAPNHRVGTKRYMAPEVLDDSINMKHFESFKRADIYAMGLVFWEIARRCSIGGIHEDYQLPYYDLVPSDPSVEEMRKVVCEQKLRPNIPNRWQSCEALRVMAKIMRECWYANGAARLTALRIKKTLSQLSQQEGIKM

As for `O=C(NCCCN1CCNCC1)c1cncc(-c2cc(-c3cc(Cl)ccc3F)nc3c2OCCN3)c1` [Example 28, 5-[6-(5-chloro-2-fluorophenyl)-2H,3H,4H-pyrido[3,2-b][1,4]oxazin-8-yl]-N-[3-(piperazin-1-yl)propyl]pyridine-3-carboxamide], the IC50 under setting [1] was in the range of 1 to 5 nM.

`O=C(CCCN1CCNCC1)Nc1cncc(-c2cc(-c3cc(Cl)ccc3F)nc3c2OCCN3)c1` [Example 33, N-{5-[6-(5-chloro-2-fluorophenyl)-2H,3H,4H-pyrido[3,2-b][1,4]oxazin-8-yl]pyridin-3-yl}-4-(piperazin-1-yl)butanamide]: the IC50 under setting [1] is 1 to 5 nM.

`CN(C)CC(=O)Nc1cncc(-c2cc(-c3cc(Cl)ccc3F)nc3c2OCCN3)c1` [Example 15, N-{5-[6-(5-chloro-2-fluorophenyl)-2H,3H,4H-pyrido[3,2-b][1,4]oxazin-8-yl]pyridin-3-yl}-2-(dimethylamino)acetamide]: under setting [1], the IC50 lay within 5 to 10 nM.

Turning to `O=C(OC1CC1)c1cncc(-c2cc(-c3cc(Cl)ccc3F)nc3c2OCCN3)c1` [Example 40, Cyclopropyl 5-[6-(5-chloro-2-fluorophenyl)-2H,3H,4H-pyrido[3,2-b][1,4]oxazin-8-yl]pyridine-3-carboxylate], the IC50 under setting [1] was 1 to 5 nM.

Turning to `CN1CCC(COc2cncc(-c3cc(-c4cc(Cl)ccc4F)nc4c3OCCN4)c2)CC1` [Example 42, 3-[6-(5-chloro-2-fluorophenyl)-2H,3H,4H-pyrido[3,2-b][1,4]oxazin-8-yl]-5-[(1-methylpiperidin-4-yl)methoxy]pyridine], under setting [1], the IC50 fell in the range of 1 to 5 nM.

`CNCCNC(=O)c1cncc(-c2cc(-c3cc(Cl)ccc3F)nc3c2OCCN3)c1` [Example 23, 5-[6-(5-chloro-2-fluorophenyl)-2H,3H,4H-pyrido[3,2-b][1,4]oxazin-8-yl]-N-[2-(methylamino)ethyl]pyridine-3-carboxamide]: under setting [1], the IC50 is 1 to 5 nM.

As to `Fc1ccc(Cl)cc1-c1cc(-c2cnc3[nH]ncc3c2)c2c(n1)NCCO2` [Example 10, 6-(5-chloro-2-fluorophenyl)-8-{1H-pyrazolo[3,4-b]pyridin-5-yl}-2H,3H,4H-pyrido[3,2-b][1,4]oxazine], the IC50 under setting [1] was not above 1 nM.

On to `Fc1ccc(Cl)cc1-c1cc(-c2cncc3ccccc23)c2c(n1)NCCO2` [Example 2, 4-[6-(5-chloro-2-fluorophenyl)-2H,3H,4H-pyrido[3,2-b][1,4]oxazin-8-yl]isoquinoline], for which the IC50 under setting [1] was in the range of 1 to 5 nM.

Regarding `COc1ccc(-c2cc(-c3cc(Cl)ccc3F)nc3c2OCCN3)cc1` [Example C1, 6-(5-chloro-2-fluorophenyl)-8-(4-methoxyphenyl)-2H,3H,4H-pyrido[3,2-b][1,4]oxazine], the IC50 under setting [2] stood at 10000 nM and the IC50 under setting [3] is more than 1700 nM.

With `CN(C)CCCC(=O)Nc1cncc(-c2cc(-c3cc(Cl)ccc3F)nc3c2OCCN3)c1` [Example 17, N-{5-[6-(5-chloro-2-fluorophenyl)-2H,3H,4H-pyrido[3,2-b][1,4]oxazin-8-yl]pyridin-3-yl}-4-(dimethylamino)butanamide], the IC50 under setting [1] is not above 1 nM.

Regarding `COc1cncc(-c2cc(-c3cc(Cl)ccc3F)nc3c2OCCN3)c1` [Example 25, 3-[6-(5-chloro-2-fluorophenyl)-2H,3H,4H-pyrido[3,2-b][1,4]oxazin-8-yl]-5-methoxypyridine], the IC50 under setting [1] is not above 1 nM.

Regarding `Fc1ccc(Cl)cc1-c1cc(-c2cnc3[nH]cnc3c2)c2c(n1)NCCO2` [Example 14, 6-(5-chloro-2-fluorophenyl)-8-{3H-imidazo[4,5-b]pyridin-6-yl}-2H,3H,4H-pyrido[3,2-b][1,4]oxazine], under setting [1], the IC50 fell in the range of 5 to 10 nM.

For `O=C(CCN1CCCCC1)Nc1cncc(-c2cc(-c3cc(Cl)ccc3F)nc3c2OCCN3)c1` [Example 18, N-{5-[6-(5-chloro-2-fluorophenyl)-2H,3H,4H-pyrido[3,2-b][1,4]oxazin-8-yl]pyridin-3-yl}-3-(piperidin-1-yl)propanamide], the IC50 under setting [1] is not above 1 nM.

On to `CN(CCC(=O)Nc1cncc(-c2cc(-c3cc(Cl)ccc3F)nc3c2OCCN3)c1)C1COC1` [Example 45, N-{5-[6-(5-chloro-2-fluorophenyl)-2H,3H,4H-pyrido[3,2-b][1,4]oxazin-8-yl]pyridin-3-yl}-3-[methyl(oxetan-3-yl)amino]propanamide], for which the IC50 under setting [1] is 1 to 5 nM.

As for `Fc1ccc(Cl)cc1-c1cc(-c2cnc3[nH]ccc3c2)c2c(n1)NCCO2` [Example 13, 6-(5-chloro-2-fluorophenyl)-8-{1H-pyrrolo[2,3-b]pyridin-5-yl}-2H,3H,4H-pyrido[3,2-b][1,4]oxazine], the IC50 under setting [1] lay within 5 to 10 nM.

With `Cc1cccc(-c2cc(-c3cnc4[nH]ncc4c3)c3c(n2)NCCO3)n1` [Example 35, 2-methyl-6-(8-{1H-pyrazolo[3,4-b]pyridin-5-yl}-2H,3H,4H-pyrido[3,2-b][1,4]oxazin-6-yl)pyridine], the IC50 under setting [1] fell in the range of 5 to 10 nM.

As to `CN(C)CCOC(=O)c1cncc(-c2cc(-c3cc(Cl)ccc3F)nc3c2OCCN3)c1` [Example 24, 2-(dimethylamino)ethyl 5-[6-(5-chloro-2-fluorophenyl)-2H,3H,4H-pyrido[3,2-b][1,4]oxazin-8-yl]pyridine-3-carboxylate], under setting [1], the IC50 was in the range of 1 to 5 nM.

In the case of `O=C(CCN1CCOCC1)Nc1cncc(-c2cc(-c3cc(Cl)ccc3F)nc3c2OCCN3)c1` [Example 9, N-{5-[6-(5-chloro-2-fluorophenyl)-2H,3H,4H-pyrido[3,2-b][1,4]oxazin-8-yl]pyridin-3-yl}-3-(morpholin-4-yl)propanamide], under setting [1], the IC50 fell in the range of 1 to 5 nM.

`Cc1csc(-c2cc(-c3cncc4ccccc34)c3c(n2)NCCO3)n1` [Example 4, 4-[6-(4-methyl-1,3-thiazol-2-yl)-2H,3H,4H-pyrido[3,2-b][1,4]oxazin-8-yl]isoquinoline]: the IC50 under setting [1] was in the range of 1 to 5 nM.

Turning to `COC(=O)c1cncc(-c2cc(-c3cccc(C)n3)nc3c2OCCN3)c1` [Example 39, Methyl 5-[6-(6-methylpyridin-2-yl)-2H,3H,4H-pyrido[3,2-b][1,4]oxazin-8-yl]pyridine-3-carboxylate], the IC50 under setting [1] is 5 to 10 nM.

Take `CNCCC(=O)Nc1cncc(-c2cc(-c3cc(Cl)ccc3F)nc3c2OCCN3)c1` [Example 22, N-{5-[6-(5-chloro-2-fluorophenyl)-2H,3H,4H-pyrido[3,2-b][1,4]oxazin-8-yl]pyridin-3-yl}-3-(methylamino)propanamide]: the IC50 under setting [1] is not above 1 nM.

In the case of `CN1CCN(CCC(=O)Nc2cncc(-c3cc(-c4cc(Cl)ccc4F)nc4c3OCCN4)c2)C(=O)C1` [Example 47, N-{5-[6-(5-chloro-2-fluorophenyl)-2H,3H,4H-pyrido[3,2-b][1,4]oxazin-8-yl]pyridin-3-yl}-3-(4-methyl-2-oxopiperazin-1-yl)propanamide], the IC50 under setting [1] was 5 to 10 nM.

Regarding `Nc1cncc(-c2cc(-c3cc(Cl)ccc3F)nc3c2OCCN3)c1` [Example 5, 5-[6-(5-chloro-2-fluorophenyl)-2H,3H,4H-pyrido[3,2-b][1,4]oxazin-8-yl]pyridin-3-amine], the IC50 under setting [1] is 1 to 5 nM.

For the molecule `CN(C)CCCNc1cncc(-c2cc(-c3cc(Cl)ccc3F)nc3c2OCCN3)c1` [Example 30, 5-[6-(5-chloro-2-fluorophenyl)-2H,3H,4H-pyrido[3,2-b][1,4]oxazin-8-yl]-N-[3-(dimethylamino)propyl]pyridin-3-amine], the IC50 under setting [1] fell in the range of 1 to 5 nM.

For the molecule `O=C(CCN1CCNCC1)Nc1cncc(-c2cc(-c3cc(Cl)ccc3F)nc3c2OCCN3)c1` [Example 16, N-{5-[6-(5-chloro-2-fluorophenyl)-2H,3H,4H-pyrido[3,2-b][1,4]oxazin-8-yl]pyridin-3-yl}-3-(piperazin-1-yl)propanamide], the IC50 under setting [1] is 1 to 5 nM.

With `O=C(NCCN1CCNCC1)c1cncc(-c2cc(-c3cc(Cl)ccc3F)nc3c2OCCN3)c1` [Example 20, 5-[6-(5-chloro-2-fluorophenyl)-2H,3H,4H-pyrido[3,2-b][1,4]oxazin-8-yl]-N-[2-(piperazin-1-yl)ethyl]pyridine-3-carboxamide], the IC50 under setting [1] was in the range of 1 to 5 nM.

For `Fc1ccc(Cl)cc1-c1cc(-c2cncc(OCC3CCCO3)c2)c2c(n1)NCCO2` (centres unmarked) [Example 34, 3-[6-(5-chloro-2-fluorophenyl)-2H,3H,4H-pyrido[3,2-b][1,4]oxazin-8-yl]-5-[(oxolan-2-yl)methoxy]pyridine], the IC50 under setting [1] is 5 to 10 nM.

In the case of `Oc1ccc(-c2cc(-c3cc(Cl)ccc3F)nc3c2OCCN3)cc1` [Example C2, 4-[6-(5-chloro-2-fluorophenyl)-2H,3H,4H-pyrido[3,2-b][1,4]oxazin-8-yl]phenol], the IC50 by setting is: under setting [2], 1710 nM; under setting [3], more than 1700 nM.

Consider `CN1CCN(CCNC(=O)c2cncc(-c3cc(-c4cc(Cl)ccc4F)nc4c3OCCN4)c2)CC1` [Example 37, 5-[6-(5-chloro-2-fluorophenyl)-2H,3H,4H-pyrido[3,2-b][1,4]oxazin-8-yl]-N-[2-(4-methylpiperazin-1-yl)ethyl]pyridine-3-carboxamide], for which the IC50 under setting [1] was in the range of 1 to 5 nM.

Turning to `CN(C)CCCNC(=O)c1cncc(-c2cc(-c3cc(Cl)ccc3F)nc3c2OCCN3)c1` [Example 21, 5-[6-(5-chloro-2-fluorophenyl)-2H,3H,4H-pyrido[3,2-b][1,4]oxazin-8-yl]-N-[3-(dimethylamino)propyl]pyridine-3-carboxamide], the IC50 under setting [1] was not above 1 nM.
